Read-outs that look alike come from different tables or passages of the source.
How the values were obtained:
[1] = test system: E. coli strains HT-99 (donor) and J53R (receptor); type: cell-based, Escherichia coli; conditions: for Class of ingredient by conjugation frequency compared to control (in words): single ingredient, 100 mg/L, from Table 1
[2] = test system: HT99 or J53R cells; type: cell-based, E. coli

SMILES	Conjugation frequency ([1]; 3 hours, 37° C.)	Class of ingredient by conjugation frequency compared to control (in words) [1]	expression of the yqfA gene (hemolysin III family protein) [2]	fatty acid biosynthesis (fabB) gene expression upon treatment with oleic acid [2]	fatty acid degradation (fadB) gene expression upon treatment with oleic acid [2]	Conjugation frequency ([1]; citral alone or mixed with conjugation inhibitors (100 mg of each per mL stock, 10 μL in 10 mL), control 0.0014)	Conjugation frequency [1]	Conjugation compared to control (in words) ([1]; result in words)
CCCCCCCC/C=C\CCCCCCCC(=O)O [Oleic acid, oleic acid]	0.00011	conjugation inhibitors	reduced	inhibition	inducing	–	–	–
Cc1ccc(C(C)C)c(O)c1 [Thymol, thymol]	0.0019	conjugation enhancers	–	–	–	–	–	–
CC(C)=CCCC(C)=CC=O [Citral, citral]	0.0023	conjugation enhancers	–	–	–	0.0028	–	–
C=CC(C)(O)CCC=C(C)C (stereo not drawn) [Linalool, linalool]	0.00085	conjugation inhibitors	–	–	–	–	–	–
O=C(OC[C@H]1O[C@@H](OC(=O)c2cc(O)c(O)c(OC(=O)c3cc(O)c(O)c(O)c3)c2)[C@H](OC(=O)c2cc(O)c(O)c(OC(=O)c3cc(O)c(O)c(O)c3)c2)[C@@H](OC(=O)c2cc(O)c(O)c(OC(=O)c3cc(O)c(O)c(O)c3)c2)[C@@H]1OC(=O)c1cc(O)c(O)c(OC(=O)c2cc(O)c(O)c(O)c2)c1)c1cc(O)c(O)c(OC(=O)c2cc(O)c(O)c(O)c2)c1 [Tannic acid, tannic acid]	0.00007	conjugation inhibitors	–	–	–	–	–	–
Cc1ccc(C(C)C)cc1O [Carvacrol, carvacrol]	0.0044	conjugation enhancers	–	–	–	–	0.0052	–
O=CC=Cc1ccccc1 [Cinnamaldehyde, cinnamaldehyde]	0.0011	conjugation inert ingredient	–	–	–	–	0.0014	not affected

Source: patent US20250064090A1 (priority 2020, published 2025)
